Laboratory results from the supplement of paper PMC10307832.

Tests used:
Assay in all cases: relative viability (nuclei count vs DMSO), 5 days (fraction); higher = more cells survive
LCLC-103H = test system: LCLC-103H
In short: (§1)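 Lung cancer cell lines, seeded in 1536-well plates, were treated the following day by pin tool with a single drug or with five library-drug doses (not always all listed) in √10 steps on top of a fixed anchor-drug dose. Cells were fixed and nuclei stained in one step after 5 days, and nuclei were counted. Relative viability is the nuclei count for treated wells divided by that for vehicle wells, reported as medians of duplicate plates.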

EPLC-272H = test system: EPLC-272H
In short: as §1

NCI-H2405 = test system: NCI-H2405
In short: as §1

NCI-H2126 = test system: NCI-H2126
In short: as §1

EMC-BAC-2 = test system: EMC-BAC-2
In short: as §1

SW 900 = test system: SW 900
In short: as §1

NCI-H3122 = test system: NCI-H3122
In short: as §1

NCI-H1666 = test system: NCI-H1666
In short: as §1

HCC-44 = test system: HCC-44
In short: as §1

NCI-H23 = test system: NCI-H23
In short: as §1

SK-LU-1 = test system: SK-LU-1
In short: as §1

NCI-H1975 = test system: NCI-H1975
In short: as §1

LK-2 = test system: LK-2
In short: as §1

LU99A = test system: LU99A
In short: as §1

SW 1573 = test system: SW 1573
In short: as §1

RERF-LC-KJ = test system: RERF-LC-KJ
In short: as §1

HCC-827 = test system: HCC-827
In short: as §1

NCI-H1563 = test system: NCI-H1563
In short: as §1

LXF-289 = test system: LXF-289
In short: as §1

LOU-NH91 = test system: LOU-NH91
In short: as §1

NCI-H2085 = test system: NCI-H2085
In short: as §1

ChaGo-K-1 = test system: ChaGo-K-1
In short: as §1

CC(C)Oc1cc(Nc2nc(N[C@@H](C)c3ccc(F)cn3)ncc2Cl)n[nH]1 [AZ23] + CCNC(=O)c1noc(-c2cc(C(C)C)c(O)cc2O)c1-c1ccc(CN2CCOCC2)cc1 [Luminespib] (partner 0.01 µM)
relative viability (LCLC-103H; first compound 0.01 µM): 1.04 | relative viability (LCLC-103H; first compound 0.03162 µM): 0.923 | relative viability (LCLC-103H; first compound 0.3162 µM): 1.03 | relative viability (EPLC-272H; first compound 0.01 µM): 0.15 | relative viability (EPLC-272H; first compound 0.03162 µM): 0.203 | relative viability (EPLC-272H; first compound 0.3162 µM): 0.551 | relative viability (NCI-H2405; first compound 0.01 µM): 0.717 | relative viability (NCI-H2405; first compound 0.03162 µM): 0.679 | relative viability (NCI-H2405; first compound 0.3162 µM): 0.661 | relative viability (NCI-H2126; first compound 0.01 µM): 0.954 | relative viability (NCI-H2126; first compound 0.03162 µM): 1 | relative viability (NCI-H2126; first compound 0.3162 µM): 0.875 | relative viability (EMC-BAC-2; first compound 0.01 µM): 1.11 | relative viability (EMC-BAC-2; first compound 0.03162 µM): 1.3 | relative viability (EMC-BAC-2; first compound 0.3162 µM): 1.23 | relative viability (SW 900; first compound 0.01 µM): 0.174 | relative viability (SW 900; first compound 0.03162 µM): 0.143 | relative viability (SW 900; first compound 0.3162 µM): 0.174 | relative viability (NCI-H3122; first compound 0.01 µM): 0.111 | relative viability (NCI-H3122; first compound 0.03162 µM): 0.0892 | relative viability (NCI-H3122; first compound 0.3162 µM): 0.0986 | relative viability (NCI-H1666; first compound 0.01 µM): 1.05 | relative viability (NCI-H1666; first compound 0.03162 µM): 1.34 | relative viability (NCI-H1666; first compound 0.3162 µM): 0.943 | relative viability (HCC-44; first compound 0.01 µM): 0.863 | relative viability (HCC-44; first compound 0.03162 µM): 1.22 | relative viability (HCC-44; first compound 0.3162 µM): 1.22 | relative viability (NCI-H23; first compound 0.03162 µM): 0.229 | relative viability (NCI-H23; first compound 0.3162 µM): 0.204 | relative viability (SK-LU-1; first compound 0.03162 µM): 0.216 | relative viability (SK-LU-1; first compound 0.3162 µM): 0.18 | relative viability (NCI-H1975; first compound 0.01 µM): 0.234 | relative viability (NCI-H1975; first compound 0.03162 µM): 0.195 | relative viability (NCI-H1975; first compound 0.3162 µM): 0.223 | relative viability (LK-2; first compound 0.01 µM): 0.185 | relative viability (LK-2; first compound 0.03162 µM): 0.189 | relative viability (LK-2; first compound 0.3162 µM): 0.177 | relative viability (LU99A; first compound 0.01 µM): 0.217 | relative viability (LU99A; first compound 0.03162 µM): 0.188 | relative viability (LU99A; first compound 0.3162 µM): 0.298 | relative viability (SW 1573; first compound 0.01 µM): 0.189 | relative viability (SW 1573; first compound 0.03162 µM): 0.164 | relative viability (SW 1573; first compound 0.3162 µM): 0.227 | relative viability (RERF-LC-KJ; first compound 0.01 µM): 1.34 | relative viability (RERF-LC-KJ; first compound 0.03162 µM): 1.43 | relative viability (RERF-LC-KJ; first compound 0.3162 µM): 1.38 | relative viability (HCC-827; first compound 0.01 µM): 0.372 | relative viability (HCC-827; first compound 0.03162 µM): 0.74 | relative viability (HCC-827; first compound 0.3162 µM): 0.649 | relative viability (NCI-H1563; first compound 0.01 µM): 0.544 | relative viability (NCI-H1563; first compound 0.03162 µM): 0.571 | relative viability (NCI-H1563; first compound 0.3162 µM): 0.596 | relative viability (LXF-289; first compound 0.01 µM): 0.884 | relative viability (LXF-289; first compound 0.03162 µM): 0.745 | relative viability (LXF-289; first compound 0.3162 µM): 0.598 | relative viability (LOU-NH91; first compound 0.01 µM): 0.387 | relative viability (LOU-NH91; first compound 0.03162 µM): 0.349 | relative viability (LOU-NH91; first compound 0.3162 µM): 0.324 | relative viability (NCI-H2085; first compound 0.01 µM): 0.321 | relative viability (NCI-H2085; first compound 0.03162 µM): 0.422 | relative viability (NCI-H2085; first compound 0.3162 µM): 0.463 | relative viability (ChaGo-K-1; first compound 0.01 µM): 0.637 | relative viability (ChaGo-K-1; first compound 0.03162 µM): 0.687 | relative viability (ChaGo-K-1; first compound 0.3162 µM): 0.7
